# Assay results reported in patent US9365604B2, “Oligomer-nucleoside phosphate conjugates” (NEKTAR THERAPEUTICS, priority 2007, dated 2016).
# Read-outs that look alike come from different tables or passages of the source.
# How the values were obtained:
# HCT15 = assay: Sulforhodamine B (SRB) growth inhibition assay; type: cell-based, Human; settings: Homo sapiens, HCT-15, SRB assay
# Description: (§1) In Vitro Screening of PEG-Gemcitabine Monophosphate in Selected Human Cancer Cell Lines
# (§2) The aim was to determine the GI50 values for PEG-floxuridine conjugates against a panel of cell lines, and based on previous data from Xenograft studies. […] The test articles were solubilized in dimethylsulfoxide and were tested at four different molar (M) concentrations; 10^−4, 10^−5, 10^−6, M. GI50 (the concentration needed to reduce the growth of treated cells to half that of untreated control cells) was calculated for each condition ([(Ti−Tz)/(C-Tz)]×100=50, where Ti, Tz, and C refer to absorbance values obtained from each tested concentration, time zero, and control treatment, respectively).
# as §2, with “The objective” for “The aim”, “the IC50” for “the GI50”, “for PEG-gemcitabine” for “for PEG-floxuridine”, “in dimethyl sulfoxide” for “in dimethylsulfoxide”, “10^−6, 10^−7” for “10^−6,”, “condition ([(Ti−Tz)/(C−Tz)]×100=50,” for “condition ([(Ti−Tz)/(C-Tz)]×100=50,”
# MCF7 = assay: Sulforhodamine B (SRB) growth inhibition assay; type: cell-based, Human; settings: Homo sapiens
# Description: as §1, §2
# as §2, with “The objective” for “The aim”, “the IC50” for “the GI50”, “for PEG-gemcitabine” for “for PEG-floxuridine”, “in dimethyl sulfoxide” for “in dimethylsulfoxide”, “10^−6, 10^−7” for “10^−6,”, “condition ([(Ti−Tz)/(C−Tz)]×100=50,” for “condition ([(Ti−Tz)/(C-Tz)]×100=50,”
# A2780 = assay: Sulforhodamine B (SRB) growth inhibition assay; type: cell-based, Human; settings: Homo sapiens, SRB assay
# Description: as §1, §2
# as §2, with “The objective” for “The aim”, “the IC50” for “the GI50”, “for PEG-gemcitabine” for “for PEG-floxuridine”, “in dimethyl sulfoxide” for “in dimethylsulfoxide”, “10^−6, 10^−7” for “10^−6,”, “condition ([(Ti−Tz)/(C−Tz)]×100=50,” for “condition ([(Ti−Tz)/(C-Tz)]×100=50,”
# Hop62 = assay: Sulforhodamine B (SRB) growth inhibition assay; type: cell-based, Human; settings: Homo sapiens, HOP-62, SRB assay
# Description: as §1, §2
# as §2, with “The objective” for “The aim”, “the IC50” for “the GI50”, “for PEG-gemcitabine” for “for PEG-floxuridine”, “in dimethyl sulfoxide” for “in dimethylsulfoxide”, “10^−6, 10^−7” for “10^−6,”, “condition ([(Ti−Tz)/(C−Tz)]×100=50,” for “condition ([(Ti−Tz)/(C-Tz)]×100=50,”
# COLO205 = assay: Sulforhodamine B (SRB) growth inhibition assay; type: cell-based, Human; settings: Homo sapiens, COLO 205, COLO205, SRB assay
# Description: as §1, §2
# as §2, with “The objective” for “The aim”, “the IC50” for “the GI50”, “for PEG-gemcitabine” for “for PEG-floxuridine”, “in dimethyl sulfoxide” for “in dimethylsulfoxide”, “10^−6, 10^−7” for “10^−6,”, “condition ([(Ti−Tz)/(C−Tz)]×100=50,” for “condition ([(Ti−Tz)/(C-Tz)]×100=50,”
# HT29 = assay: Sulforhodamine B (SRB) growth inhibition assay; type: cell-based, Human; settings: Homo sapiens, HT-29, SRB assay
# Description: as §1, §2
# as §2, with “The objective” for “The aim”, “the IC50” for “the GI50”, “for PEG-gemcitabine” for “for PEG-floxuridine”, “in dimethyl sulfoxide” for “in dimethylsulfoxide”, “10^−6, 10^−7” for “10^−6,”, “condition ([(Ti−Tz)/(C−Tz)]×100=50,” for “condition ([(Ti−Tz)/(C-Tz)]×100=50,”
# MDCK cells [1] = tested on: MDCK cells
# Description: (§5) Bi-Directional Permeability of PEG-Floxuridine Conjugates in Caco-2 and MDCK Cells
# MIA PaCa-2 = assay: In vitro cytotoxicity assay (CellTiter-Glo); type: cell-based; settings: Homo sapiens, 72 h exposure, CellTiter-Glo
# Description: (§3) The objective of these studies were to determine the IC50 values for PEG-floxuridine conjugates against floxuridine-resistant cell lines based on data from previous Xenograft studies. The cells were exposed for 72 h, and cell viability assessed by using the CellTiter-Glo assay.
# (§4) The objective of these studies was to determine the IC50 values for PEG-gemcitabine conjugates against gemcitabine-resistant cell lines based on data from previous Xenograft studies. The cells were exposed for 72 h, and cell viability assessed by using the CellTiter-Glo assay.
# HT-29 = assay: In vitro cytotoxicity assay (CellTiter-Glo); type: cell-based; settings: Homo sapiens, 72 h exposure, CellTiter-Glo
# Description: as §3, §4
# HCT-116 = assay: In vitro cytotoxicity assay (CellTiter-Glo); type: cell-based; settings: Homo sapiens, 72 h exposure, CellTiter-Glo
# Description: as §3, §4
# DU145 = assay: Sulforhodamine B (SRB) growth inhibition assay; type: cell-based, Human; settings: Homo sapiens, DU-145, SRB assay, cells exposed for 24 h, read-out: GI50 values (μM) DU145
# Description: as §2
# as §2, with “The objective” for “The aim”, “the IC50” for “the GI50”, “for PEG-gemcitabine” for “for PEG-floxuridine”, “in dimethyl sulfoxide” for “in dimethylsulfoxide”, “10^−6, 10^−7” for “10^−6,”, “condition ([(Ti−Tz)/(C−Tz)]×100=50,” for “condition ([(Ti−Tz)/(C-Tz)]×100=50,”
# PANC-1 [2] = assay: In vitro cytotoxicity assay (CellTiter-Glo); type: cell-based; settings: Homo sapiens, 72 h exposure
# Description: as §4
# The PEG-gemcitabine derivatives and gemcitabine inhibited the growth of most of the cell lines with IC50 values from the nM to low μM range, except for PANC-1 cells. Like the previous study, some of the IC50 values should be interpreted carefully because the concentration range tested was not centered around the IC50. […] The PANC-1 pancreatic cell line, in contrast to BxPC-3, Capan-1, or MIA-PaCa-2, has been shown previously to be resistant in vitro to gemcitabine, and 4′-thio-FAC, a deoxycytidine sulfur- and fluoro-substituted analog (Zajchowski et al., (2005). Int J Cancer. 114(6), 1002-9).
# PANC-1 [3] = settings: Zajchowski et al. 2005; cited from earlier work
# Caco-2 cells [4] = tested on: Caco-2 cells
# Description: as §5
# in vitro = settings: human
# Description: Cells were inoculated into 24-well microtiter plates in 100 μL at 5×10^3 cells/well, in duplicate. After 24 h, test articles were added to the cells for 24 or 48 h, after which time the supernatant from each of the wells was collected and stored below −15° C. until LC/MS analysis.
# NCI-H23 = assay: In vitro cytotoxicity assay (CellTiter-Glo); type: cell-based; settings: Homo sapiens, 72 h exposure, CellTiter-Glo
# Description: as §4
# DLD-1 = assay: In vitro cytotoxicity assay (CellTiter-Glo); type: cell-based; settings: Homo sapiens, 72 h exposure, CellTiter-Glo
# Description: as §4
# RL = assay: In vitro cytotoxicity assay (CellTiter-Glo); type: cell-based; settings: Homo sapiens, 72 h exposure, CellTiter-Glo
# Description: as §4
# SW-620 = assay: In vitro cytotoxicity assay (CellTiter-Glo); type: cell-based; settings: Homo sapiens, 72 h exposure, CellTiter-Glo
# Description: as §4
# CCRF-CEM = assay: In vitro cytotoxicity assay (CellTiter-Glo); type: cell-based; settings: Homo sapiens, 72 h exposure, CellTiter-Glo
# Description: as §4
# AS283 = assay: In vitro cytotoxicity assay (CellTiter-Glo); type: cell-based; settings: 72 h exposure, CellTiter-Glo
# Description: as §4
# K-562 = assay: In vitro cytotoxicity assay (CellTiter-Glo); type: cell-based; settings: Homo sapiens, K562, 72 h exposure, CellTiter-Glo
# Description: as §4
# HL-60 = assay: In vitro cytotoxicity assay (CellTiter-Glo); type: cell-based; settings: Homo sapiens, 72 h exposure, CellTiter-Glo
# Description: as §4
# NCI-H522 = assay: In vitro cytotoxicity assay (CellTiter-Glo); type: cell-based; settings: Homo sapiens, 72 h exposure, CellTiter-Glo
# Description: as §4
# NCI-H460 = assay: In vitro cytotoxicity assay (CellTiter-Glo); type: cell-based; settings: Homo sapiens, 72 h exposure, CellTiter-Glo
# Description: as §4
# [5] = Bi-directional permeability in MDCK cells; settings: dog
# Description: as §5
# MDCK cells [6] = assay: Bi-directional permeability in MDCK cells
# Description: as §5
# CAKI-1 = assay: In vitro cytotoxicity assay (CellTiter-Glo); type: cell-based; settings: Homo sapiens, 72 h exposure, CellTiter-Glo
# [7] = Bi-directional permeability in Caco-2 cells; settings: human
# Description: as §5
# Caco-2 cells [8] = assay: Bi-directional permeability in Caco-2 cells
# Description: as §5
smiles,measurement,setting,value
"Nc1ccn([C@@H]2O[C@H](CO)[C@@H](O)C2(F)F)c(=O)n1 [Gemcitabine, reference compound]",GI50,"HCT15; 48 h drug exposure, read-out: GI50 (molar concentration) in Cell Line HCT15",0.16 µM
same,GI50,"HCT15; cells exposed for 24 h, read-out: GI50 values (μM) HCT15",0.16 µM
same,GI50,"MCF7; MCF-7 cell line, read-out: GI50 (MCF-7 moderately sensitive)",~0.1 µM
same,GI50,"MCF7; SRB assay, 48 h drug exposure, read-out: GI50 (molar concentration) in Cell Line MCF7",< 0.1 µM
same,GI50,"MCF7; SRB assay, cells exposed for 24 h, read-out: GI50 values (μM) MCF7",< 0.1 µM
same,GI50,"A2780; 48 h drug exposure, read-out: GI50 (molar concentration) in Cell Line A2780",< 0.1 µM
same,GI50,"A2780; cells exposed for 24 h, read-out: GI50 values (μM) A2780",< 0.1 µM
same,GI50,"Hop62; 48 h drug exposure, read-out: GI50 (molar concentration) in Cell Line Hop62",1.8 µM
same,GI50,"Hop62; cells exposed for 24 h, read-out: GI50 values (μM) Hop62",1.8 µM
same,GI50,"COLO205; 48 h drug exposure, read-out: GI50 (molar concentration) in Cell Line COLO205",0.14 µM
same,GI50,"COLO205; cells exposed for 24 h, read-out: GI50 values (μM) COLO205",0.14 µM
same,GI50,"HT29; 48 h drug exposure, read-out: GI50 (molar concentration) in Cell Line HT29",2.1 µM
same,GI50,"HT29; cells exposed for 24 h, read-out: GI50 values (μM) HT29",2.1 µM
same,Significant efflux,MDCK cells [1],No
same,IC50,MIA PaCa-2,26 nM
same,IC50,HT-29,111 nM
same,IC50,HCT-116,1.9 nM
same,GI50,DU145,< 0.1 µM
same,IC50,PANC-1 [2],> 1e+06 nM
same,resistance of PANC-1 in vitro (shown previously),PANC-1 [3],resistant
same,Significant efflux,Caco-2 cells [4],No
same,recovery,in vitro,100 to 110%
same,IC50,NCI-H23,6.9 nM
same,IC50,DLD-1,22 nM
same,IC50,RL,281 nM
same,IC50,SW-620,49 nM
same,IC50,CCRF-CEM,7 nM
same,IC50,AS283,124 nM
same,IC50,K-562,697 nM
same,IC50,HL-60,1.7 nM
same,IC50,NCI-H522,4.4 nM
same,IC50,NCI-H460,14 nM
same,Papp A→B,[5],0.17 ×10⁻⁶ cm/s
same,Papp B→A,[5],0.12 ×10⁻⁶ cm/s
same,efflux ratio,[5],0.7
same,recovery,[5]; percent recovery A -> B,96%
same,recovery,[5]; percent recovery B -> A,95%
same,permeability through MDCK monolayers (in words),MDCK cells [6],poor permeability
same,IC50,CAKI-1,8.3 nM
same,Papp A→B,[7],0.3 ×10⁻⁶ cm/s
same,Papp B→A,[7],0.42 ×10⁻⁶ cm/s
same,efflux ratio,[7],1.4
same,recovery,"[7]; Caco-2, percent recovery A -> B",90%
same,recovery,"[7]; Caco-2, percent recovery B -> A",89%
same,permeability across Caco-2 monolayers (in words),Caco-2 cells [8],poor permeability
